Experimental findings from article PMC4858680, “A platinum-based hybrid drug design approach to circumvent acquired resistance to molecular targeted tyrosine kinase inhibitors” (Scientific Reports, 2016) are described below.

Each structure is given as a SMILES string. Where two headings read alike, the source gives them in different places.

For experiment [1], the system named is EGFR(L747-T751del,Sins). Type of experiment: binding. Particulars: 10 μM.
The target of experiment [2] is T1, ITK (Homo sapiens, UniProt Q08881).
T1 sequence (Q08881 1-620): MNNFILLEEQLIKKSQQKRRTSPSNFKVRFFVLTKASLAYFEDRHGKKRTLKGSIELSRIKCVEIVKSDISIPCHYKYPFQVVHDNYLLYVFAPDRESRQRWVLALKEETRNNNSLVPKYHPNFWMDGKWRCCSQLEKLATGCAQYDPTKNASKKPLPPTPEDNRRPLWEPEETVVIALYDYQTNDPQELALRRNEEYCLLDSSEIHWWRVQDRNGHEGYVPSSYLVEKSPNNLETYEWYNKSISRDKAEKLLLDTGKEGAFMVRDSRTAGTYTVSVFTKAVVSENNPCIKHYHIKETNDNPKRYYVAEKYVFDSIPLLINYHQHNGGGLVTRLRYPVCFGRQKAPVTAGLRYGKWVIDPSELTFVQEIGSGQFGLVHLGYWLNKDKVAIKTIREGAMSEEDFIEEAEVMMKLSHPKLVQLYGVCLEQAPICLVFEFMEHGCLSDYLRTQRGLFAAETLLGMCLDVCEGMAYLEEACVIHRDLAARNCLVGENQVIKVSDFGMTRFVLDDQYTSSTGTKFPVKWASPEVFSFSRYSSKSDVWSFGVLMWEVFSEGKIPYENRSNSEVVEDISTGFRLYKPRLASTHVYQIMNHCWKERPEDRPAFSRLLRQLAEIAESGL
Briefly: biochemical. Particulars: read-out: Percent control.

The target in experiment [3] is CSK (Homo sapiens, UniProt P41240). The experiment can be described thus: biochemical. The note with it: read-out: Percent control.
Sequence of CSK (P41240 whole entry): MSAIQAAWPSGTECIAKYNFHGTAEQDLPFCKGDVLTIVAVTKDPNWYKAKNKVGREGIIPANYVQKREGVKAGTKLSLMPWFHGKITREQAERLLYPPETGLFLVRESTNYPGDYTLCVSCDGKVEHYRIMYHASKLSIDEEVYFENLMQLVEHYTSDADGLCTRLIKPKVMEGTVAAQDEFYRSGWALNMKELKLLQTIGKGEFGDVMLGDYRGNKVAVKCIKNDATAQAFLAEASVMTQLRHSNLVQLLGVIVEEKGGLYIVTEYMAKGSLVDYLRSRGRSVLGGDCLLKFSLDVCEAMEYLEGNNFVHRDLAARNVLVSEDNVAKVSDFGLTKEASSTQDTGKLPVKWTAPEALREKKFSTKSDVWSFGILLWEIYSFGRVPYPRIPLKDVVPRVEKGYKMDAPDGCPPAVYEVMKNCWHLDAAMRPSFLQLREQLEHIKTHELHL
Experiment [4] deals with T2, EPHB1 (Homo sapiens, UniProt P54762).
T2 sequence (P54762 18-984): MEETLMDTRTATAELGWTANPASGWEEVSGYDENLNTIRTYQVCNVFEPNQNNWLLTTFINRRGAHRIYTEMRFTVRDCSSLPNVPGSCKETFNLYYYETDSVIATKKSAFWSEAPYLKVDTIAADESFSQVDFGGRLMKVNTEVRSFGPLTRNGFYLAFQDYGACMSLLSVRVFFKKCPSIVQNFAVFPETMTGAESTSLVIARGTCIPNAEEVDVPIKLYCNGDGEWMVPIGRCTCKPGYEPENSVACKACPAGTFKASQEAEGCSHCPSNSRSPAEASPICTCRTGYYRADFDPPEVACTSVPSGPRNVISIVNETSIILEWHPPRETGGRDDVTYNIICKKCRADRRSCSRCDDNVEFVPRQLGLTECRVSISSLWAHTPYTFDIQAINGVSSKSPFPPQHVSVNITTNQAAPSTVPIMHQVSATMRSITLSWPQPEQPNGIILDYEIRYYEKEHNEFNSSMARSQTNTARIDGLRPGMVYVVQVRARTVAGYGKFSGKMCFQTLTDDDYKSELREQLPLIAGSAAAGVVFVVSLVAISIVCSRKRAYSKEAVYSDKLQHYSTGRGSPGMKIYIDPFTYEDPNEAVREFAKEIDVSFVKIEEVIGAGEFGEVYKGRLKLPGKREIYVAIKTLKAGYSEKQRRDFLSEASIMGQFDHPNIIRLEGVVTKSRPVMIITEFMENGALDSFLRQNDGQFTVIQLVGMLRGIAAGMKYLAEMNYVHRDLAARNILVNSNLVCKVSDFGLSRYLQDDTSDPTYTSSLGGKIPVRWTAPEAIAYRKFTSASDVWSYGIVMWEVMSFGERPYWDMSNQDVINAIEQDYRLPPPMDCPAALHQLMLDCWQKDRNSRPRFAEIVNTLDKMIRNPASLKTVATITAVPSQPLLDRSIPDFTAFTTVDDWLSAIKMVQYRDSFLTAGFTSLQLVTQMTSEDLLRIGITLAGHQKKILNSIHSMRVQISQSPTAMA
The note with it: 10 μM.

Experiment [5] addresses ALK (Homo sapiens, UniProt Q9UM73). Particulars: 10 μM.
Experiment [6] addresses T3, MST1R (Homo sapiens, UniProt Q04912).
T3 construct: purchased DiscoveRx KINOMEscan
Format: binding. Particulars: 10 μM.

The target of experiment [7] is FLT1 (Homo sapiens, UniProt P17948). Particulars: 10 μM.
In experiment [8] the target is TRKC (Homo sapiens, UniProt Q16288). The note with it: 10 μM.
Sequence of TRKC (Q16288 32-839): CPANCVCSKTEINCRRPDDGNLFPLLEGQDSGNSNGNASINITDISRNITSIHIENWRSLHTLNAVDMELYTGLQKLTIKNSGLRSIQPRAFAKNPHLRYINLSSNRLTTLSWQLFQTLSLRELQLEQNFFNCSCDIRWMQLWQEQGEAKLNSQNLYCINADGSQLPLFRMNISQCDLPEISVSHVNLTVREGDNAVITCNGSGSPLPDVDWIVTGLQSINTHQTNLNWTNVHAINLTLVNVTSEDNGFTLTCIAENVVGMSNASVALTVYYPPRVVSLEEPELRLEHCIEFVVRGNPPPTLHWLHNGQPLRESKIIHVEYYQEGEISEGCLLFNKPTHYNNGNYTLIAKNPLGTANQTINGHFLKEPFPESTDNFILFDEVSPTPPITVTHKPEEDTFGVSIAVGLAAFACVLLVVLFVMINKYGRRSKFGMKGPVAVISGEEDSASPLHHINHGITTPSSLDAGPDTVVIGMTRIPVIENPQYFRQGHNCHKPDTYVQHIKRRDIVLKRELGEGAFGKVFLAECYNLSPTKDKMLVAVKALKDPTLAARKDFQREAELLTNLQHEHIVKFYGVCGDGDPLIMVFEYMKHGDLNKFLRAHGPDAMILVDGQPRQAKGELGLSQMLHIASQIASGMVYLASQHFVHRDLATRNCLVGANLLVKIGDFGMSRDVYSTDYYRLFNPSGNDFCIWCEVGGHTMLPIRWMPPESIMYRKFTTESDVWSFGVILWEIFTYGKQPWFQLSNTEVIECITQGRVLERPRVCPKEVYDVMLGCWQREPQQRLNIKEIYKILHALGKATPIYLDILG
Experiment [9] concerns the target LTK (Homo sapiens, UniProt P29376). The note with it: 10 μM.
Experiment [10] has as its target T4, FLT3(R834Q) (Homo sapiens, UniProt P36888, R834Q).
T4 sequence (P36888 27-993 R834Q): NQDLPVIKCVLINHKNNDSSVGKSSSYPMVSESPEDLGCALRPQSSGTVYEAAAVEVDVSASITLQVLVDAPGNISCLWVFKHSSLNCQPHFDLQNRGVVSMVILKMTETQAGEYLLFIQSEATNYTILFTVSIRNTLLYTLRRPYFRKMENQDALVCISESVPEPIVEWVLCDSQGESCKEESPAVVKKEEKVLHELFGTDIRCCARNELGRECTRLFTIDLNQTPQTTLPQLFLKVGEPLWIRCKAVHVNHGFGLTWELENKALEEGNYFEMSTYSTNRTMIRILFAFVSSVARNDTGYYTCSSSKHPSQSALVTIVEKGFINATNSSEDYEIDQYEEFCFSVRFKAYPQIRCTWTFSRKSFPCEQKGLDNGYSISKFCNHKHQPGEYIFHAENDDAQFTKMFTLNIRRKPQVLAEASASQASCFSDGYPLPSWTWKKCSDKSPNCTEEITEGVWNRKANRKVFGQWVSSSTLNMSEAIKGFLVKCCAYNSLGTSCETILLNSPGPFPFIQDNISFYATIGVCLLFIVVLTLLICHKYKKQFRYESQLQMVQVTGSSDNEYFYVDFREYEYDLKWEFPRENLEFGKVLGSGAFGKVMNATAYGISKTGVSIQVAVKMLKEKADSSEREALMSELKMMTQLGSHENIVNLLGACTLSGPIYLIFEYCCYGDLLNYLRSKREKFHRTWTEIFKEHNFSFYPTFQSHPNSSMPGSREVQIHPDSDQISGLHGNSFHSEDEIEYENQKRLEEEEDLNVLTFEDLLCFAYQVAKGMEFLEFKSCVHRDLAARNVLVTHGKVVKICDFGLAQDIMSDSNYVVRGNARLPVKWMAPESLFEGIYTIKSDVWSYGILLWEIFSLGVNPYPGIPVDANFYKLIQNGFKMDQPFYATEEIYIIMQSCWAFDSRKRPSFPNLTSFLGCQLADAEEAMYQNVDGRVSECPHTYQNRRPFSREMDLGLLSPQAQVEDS

Sequence of LTK (P29376 17-864): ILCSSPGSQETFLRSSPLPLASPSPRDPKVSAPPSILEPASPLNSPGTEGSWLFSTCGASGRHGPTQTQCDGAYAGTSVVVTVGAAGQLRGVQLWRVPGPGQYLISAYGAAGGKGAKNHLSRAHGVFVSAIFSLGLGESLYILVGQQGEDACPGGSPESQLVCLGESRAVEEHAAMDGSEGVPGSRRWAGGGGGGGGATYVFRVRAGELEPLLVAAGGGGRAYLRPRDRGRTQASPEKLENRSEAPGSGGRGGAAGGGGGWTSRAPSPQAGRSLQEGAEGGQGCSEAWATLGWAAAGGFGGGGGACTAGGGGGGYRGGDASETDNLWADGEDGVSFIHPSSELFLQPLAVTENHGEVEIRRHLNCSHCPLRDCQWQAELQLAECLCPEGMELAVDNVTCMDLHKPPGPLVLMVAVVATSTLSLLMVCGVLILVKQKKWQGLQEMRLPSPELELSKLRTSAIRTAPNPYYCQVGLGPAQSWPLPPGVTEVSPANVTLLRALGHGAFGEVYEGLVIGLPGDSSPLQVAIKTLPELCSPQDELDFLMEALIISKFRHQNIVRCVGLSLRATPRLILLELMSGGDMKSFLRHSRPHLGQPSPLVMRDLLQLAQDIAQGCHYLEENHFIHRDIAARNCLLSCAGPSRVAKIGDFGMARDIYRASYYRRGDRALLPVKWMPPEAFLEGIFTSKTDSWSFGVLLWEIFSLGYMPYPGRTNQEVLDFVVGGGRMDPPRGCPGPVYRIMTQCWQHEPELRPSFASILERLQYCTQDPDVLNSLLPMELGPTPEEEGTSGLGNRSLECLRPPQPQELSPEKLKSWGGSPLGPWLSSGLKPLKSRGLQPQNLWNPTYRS
Sequence of ALK (Q9UM73 19-1620): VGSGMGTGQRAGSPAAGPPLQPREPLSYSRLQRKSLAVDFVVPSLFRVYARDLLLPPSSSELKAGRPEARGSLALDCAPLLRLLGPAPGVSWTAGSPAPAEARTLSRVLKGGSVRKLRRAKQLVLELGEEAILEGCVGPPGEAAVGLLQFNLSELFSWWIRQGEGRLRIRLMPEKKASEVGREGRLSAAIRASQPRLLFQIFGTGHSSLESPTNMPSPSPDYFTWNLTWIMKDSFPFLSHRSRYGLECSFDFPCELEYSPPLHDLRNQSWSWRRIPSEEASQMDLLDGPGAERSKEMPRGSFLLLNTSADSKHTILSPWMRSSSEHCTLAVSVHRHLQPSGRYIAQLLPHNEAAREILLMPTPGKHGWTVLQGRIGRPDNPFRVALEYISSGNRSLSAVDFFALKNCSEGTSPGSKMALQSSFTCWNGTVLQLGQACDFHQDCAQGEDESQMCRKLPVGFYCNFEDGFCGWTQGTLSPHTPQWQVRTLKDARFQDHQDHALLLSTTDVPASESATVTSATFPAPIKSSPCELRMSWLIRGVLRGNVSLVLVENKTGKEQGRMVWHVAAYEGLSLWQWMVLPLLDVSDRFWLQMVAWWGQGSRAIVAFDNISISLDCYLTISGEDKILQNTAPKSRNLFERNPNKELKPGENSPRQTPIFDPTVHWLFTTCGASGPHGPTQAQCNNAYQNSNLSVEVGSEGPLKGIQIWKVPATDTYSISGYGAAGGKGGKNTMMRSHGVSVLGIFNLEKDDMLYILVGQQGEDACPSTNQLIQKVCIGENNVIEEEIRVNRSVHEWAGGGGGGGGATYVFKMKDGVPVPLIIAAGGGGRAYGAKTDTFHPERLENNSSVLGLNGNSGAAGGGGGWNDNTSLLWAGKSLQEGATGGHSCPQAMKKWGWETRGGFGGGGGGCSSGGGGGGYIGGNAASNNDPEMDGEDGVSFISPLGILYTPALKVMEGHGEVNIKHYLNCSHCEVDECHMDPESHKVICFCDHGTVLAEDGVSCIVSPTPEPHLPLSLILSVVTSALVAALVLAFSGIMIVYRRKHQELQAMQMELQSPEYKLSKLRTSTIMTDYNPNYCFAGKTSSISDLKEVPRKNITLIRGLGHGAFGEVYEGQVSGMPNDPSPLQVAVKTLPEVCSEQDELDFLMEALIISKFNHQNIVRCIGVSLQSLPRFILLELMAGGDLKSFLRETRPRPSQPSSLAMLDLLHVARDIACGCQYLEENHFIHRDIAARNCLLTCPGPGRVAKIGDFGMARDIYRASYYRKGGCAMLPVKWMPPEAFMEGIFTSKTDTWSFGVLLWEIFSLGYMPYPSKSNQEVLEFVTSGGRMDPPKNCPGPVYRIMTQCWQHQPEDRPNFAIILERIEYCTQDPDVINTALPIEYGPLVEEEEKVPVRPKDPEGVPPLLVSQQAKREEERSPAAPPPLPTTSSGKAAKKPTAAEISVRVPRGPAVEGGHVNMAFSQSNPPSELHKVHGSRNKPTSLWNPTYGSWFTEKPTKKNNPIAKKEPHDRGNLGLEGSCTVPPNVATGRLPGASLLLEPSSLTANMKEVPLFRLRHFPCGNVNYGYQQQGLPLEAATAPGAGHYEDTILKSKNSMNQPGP
T3 sequence (Q04912 25-1400): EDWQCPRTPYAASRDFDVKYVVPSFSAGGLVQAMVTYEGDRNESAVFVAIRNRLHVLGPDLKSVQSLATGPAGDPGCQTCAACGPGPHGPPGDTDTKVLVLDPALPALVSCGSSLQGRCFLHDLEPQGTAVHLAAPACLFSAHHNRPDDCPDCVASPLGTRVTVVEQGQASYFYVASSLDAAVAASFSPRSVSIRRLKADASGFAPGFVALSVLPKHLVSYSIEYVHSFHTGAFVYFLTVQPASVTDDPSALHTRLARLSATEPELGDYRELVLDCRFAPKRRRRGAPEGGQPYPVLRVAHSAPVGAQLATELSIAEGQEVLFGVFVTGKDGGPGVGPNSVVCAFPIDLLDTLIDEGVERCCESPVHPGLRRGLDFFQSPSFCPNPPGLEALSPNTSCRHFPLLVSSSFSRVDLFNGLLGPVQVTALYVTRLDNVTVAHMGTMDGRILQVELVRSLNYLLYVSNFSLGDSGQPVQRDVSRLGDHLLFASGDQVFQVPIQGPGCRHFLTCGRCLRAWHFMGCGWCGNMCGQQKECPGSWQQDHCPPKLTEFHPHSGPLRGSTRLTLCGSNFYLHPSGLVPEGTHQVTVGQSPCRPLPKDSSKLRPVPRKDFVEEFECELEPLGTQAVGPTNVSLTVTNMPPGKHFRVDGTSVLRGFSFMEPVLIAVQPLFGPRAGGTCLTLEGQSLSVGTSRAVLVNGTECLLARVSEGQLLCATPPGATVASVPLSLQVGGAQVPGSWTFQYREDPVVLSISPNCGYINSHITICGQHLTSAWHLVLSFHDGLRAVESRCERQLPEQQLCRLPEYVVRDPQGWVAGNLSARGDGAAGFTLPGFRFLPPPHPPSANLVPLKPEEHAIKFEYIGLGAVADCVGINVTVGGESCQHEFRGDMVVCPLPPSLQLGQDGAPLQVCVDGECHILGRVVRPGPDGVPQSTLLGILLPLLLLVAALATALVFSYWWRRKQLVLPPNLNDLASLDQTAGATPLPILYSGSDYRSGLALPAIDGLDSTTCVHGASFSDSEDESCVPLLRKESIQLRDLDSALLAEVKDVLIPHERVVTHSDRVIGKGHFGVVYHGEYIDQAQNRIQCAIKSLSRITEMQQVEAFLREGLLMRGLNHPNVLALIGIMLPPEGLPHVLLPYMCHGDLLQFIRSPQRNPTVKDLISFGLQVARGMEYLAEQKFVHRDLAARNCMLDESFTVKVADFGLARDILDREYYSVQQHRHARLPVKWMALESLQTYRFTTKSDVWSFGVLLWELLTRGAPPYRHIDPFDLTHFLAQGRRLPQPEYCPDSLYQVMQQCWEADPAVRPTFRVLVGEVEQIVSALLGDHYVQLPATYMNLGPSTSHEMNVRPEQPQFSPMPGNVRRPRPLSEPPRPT

In the case of `C#Cc1cccc(Nc2ncnc3cc(OCCOC)c(OCCOC)cc23)c1` [Erlotinib], in experiment [1], the Percent control turned out to be 0.0%. The remaining activity at 10 µM was 100% in experiment [2] and 49% in [3].

For `Cc1ccc(NC(=O)c2ccc(CN3CCN(C)CC3)cc2)cc1Nc1nccc(-c2cccnc2)[n+]1[Pt-2]1([Cl])[NH2+]C2CCCCC2[NH2+]1` (stereo not drawn) [1b, oxaliplatin-imatinib], the Percent control in [4] is given as 94%; in [1], 76%; in experiment [5], 99%; in [6], 100%; in experiment [7], 85%; in [8], 100%. Moreover, the Percent control came to 85% in [9] and 94% in [10] (FLT3(R834Q), 10 μM).

Regarding `COc1cc2c(Nc3ccc(Br)cc3F)ncnc2cc1OCC1CCN(C)CC1` [Vandetanib, reference compound], the Percent control in experiment [1] is recorded as 0.1%. Moreover, the remaining activity at 10 µM worked out at 100% in [2] and 20% in [3].

Regarding `COc1cc2c(Nc3ccc(Br)cc3F)[n+]([Pt-2]3([Cl])[NH2+]C4CCCCC4[NH2+]3)cnc2cc1OCC1CCN(C)CC1` (stereo not drawn) [3b, oxaliplatin-vandetanib], the Percent control in experiment [4] is 31%; in experiment [6] it was 100%; in experiment [8] it was 98%; in experiment [9] it was 27%; in experiment [10] it was 89.

Consider `C#Cc1cccc(Nc2c3cc(OCCOC)c(OCCOC)cc3nc[n+]2[Pt@SP2-2]([NH3+])([NH3+])[Cl])c1` [2a, cisplatin-erlotinib], for which the Percent control was found to be 90% in experiment [4]; 79% in experiment [5]; 100% in experiment [6]; 88% in experiment [7]; 93% in experiment [8]; 82% in [9]. The Percent control in [10] is recorded as 80.

Consider `Cc1ccc(NC(=O)c2ccc(CN3CCN(C)CC3)cc2)cc1Nc1nccc(-c2cccnc2)n1` [Imatinib, reference compound], for which the Percent control in [4], in [1], in experiment [5], in [6], in [7] and in [8] was 100% throughout. The Percent control amounted to 92% in experiment [9] and 100% in [10] (FLT3(R834Q), 10 μM). The remaining activity at 10 µM in [2] and in experiment [3] was 100% each time.
